How the values were obtained:
HIV-2 ROD = test: Anti-HIV-2 ROD activity in MT-4 cells, MTT method; type: cell-based; settings: Human immunodeficiency virus 2, MT4, read-out: EC50 ROD
[1] = tested on: HIV-1 K103N+Y181C (RES056); test: microbe, parasite or virus in culture; type: cell-based; settings: Human immunodeficiency virus 1, MT4, read-out: EC50 RES056
HIV-1 F227L+V106A = type: cell-based; settings: Human immunodeficiency virus 1, MT4, read-out: EC50 F227L+V106A
[2] = Acute toxicity test in Kunming mice; type: in vivo; settings: Kunming, mouse, in vivo, po
Kunming mice = test: Acute toxicity test in Kunming mice; type: in vivo; settings: Kunming mice
in vivo = settings: Sprague-Dawley, rat, iv, 2 mg/kg

Structure (SMILES): Cc1cc(C#N)cc(C)c1Oc1nc(NC2CCN(Cc3ccc(S(N)(=O)=O)cc3)CC2)ncc1-c1ccsc1 [Compound 12a, 4-((4-((4-(4-cyano-2,6-dimethylphenoxy)-5-(thiophen-3-yl)pyrimidin-2-yl)amino)piperidin-1-yl)methyl)benzenesulfonamide]
- EC50 (HIV-2 ROD): > 6.12 µM

Structure (SMILES): Cc1cc(C#N)cc(C)c1Oc1nc(NC2CCN(Cc3ccc(S(N)(=O)=O)cc3)CC2)ncc1-c1cccs1 [Compound 11a, 4-((4-((4-(4-cyano-2,6-dimethylphenoxy)-5-(thiophen-2-yl)pyrimidin-2-yl)amino)piperidin-1-yl)methyl)benzenesulfonamide]
- EC50 (HIV-2 ROD): ≥ 33.4 µM

Structure (SMILES): Cc1cc(C#N)cc(C)c1Oc1nc(Nc2ccc(C#N)cc2)nc(N)c1Br [ETR, etravirine]
- EC50 [1]: 0.0522 ± 0.0242 µM
- EC50 (HIV-1 F227L+V106A): 0.0269 ± 0.0023 µM

Structure (SMILES): Cc1cc(C#N)cc(C)c1Oc1nc(NC2CCN(Cc3ccc(C(N)=O)cc3)CC2)ncc1-c1ccncc1 [Compound 16c, 4-((4-((4-(4-cyano-2,6-dimethylphenoxy)-5-(pyridin-4-yl)pyrimidin-2-yl)amino)piperidin-1-yl)methyl)benzamide]
- EC50 (HIV-2 ROD): > 36 µM
- LD50 at 2 weeks [2]: > 2000 mg/kg
- acute toxicity, tolerability (Kunming mice; single oral dose): well-tolerated up to a dose of 2000 mg/kg with no acute toxicity
- body weight change (Kunming mice; single oral dose 2000 mg/kg): no abnormality of body weight changed
- toxic symptoms or mortality (Kunming mice; single oral dose 2000 mg/kg, subsequent two weeks): did not exhibit any toxic symptoms or mortality
- Tmax (in vivo): 1.98 min

Structure (SMILES): Cc1cc(C#N)cc(C)c1Oc1nc(NC2CCN(Cc3ccc(S(C)(=O)=O)cc3)CC2)ncc1-c1ccco1 [Compound 13b, 4-((5-(furan-2-yl)-2-((1-(4-(methylsulfonyl)benzyl)piperidin-4-yl)amino)pyrimidin-4-yl)oxy)-3,5-dimethylbenzonitrile]
- EC50 (HIV-2 ROD): > 7.46 µM

Structure (SMILES): Cc1cc(C#N)cc(C)c1Oc1nc(NC2CCN(Cc3ccc(C(N)=O)cc3)CC2)ncc1-c1ccoc1 [Compound 14c, 4-((4-((4-(4-cyano-2,6-dimethylphenoxy)-5-(furan-3-yl)pyrimidin-2-yl)amino)piperidin-1-yl)methyl)benzamide]
- EC50 (HIV-2 ROD): > 182 µM

— publication PMC8594587 (Journal of medicinal chemistry, 2021)
